From patent US12551532B2, “Long-acting amylin receptor agonists and uses thereof” (Eli Lilly and Company, priority 2021, dated 2026)
Starred links: 1 amine or outer side, 2 acyl side, 3 side chain; linkers in the order of their positions; H or OH if unused. Positions of bridges follow the written chain, without caps; N, C: chain ends. Non-standard residues stand in square brackets, D forms with d. Residues, ends and D or L forms follow the SMILES beside them. Groups on a side chain read outwards from the residue. *: point of attachment. C20 diacid = O=C(O)CCCCCCCCCCCCCCCCCCC(=O)*; γGlu = O=C(O)[C@H](CCC(=O)[*:2])N[*:1]; αMeL = CC(C)C[C@](C)(N)C(=O)O; Orn = NCCC[C@H](N)C(=O)O; CH2 = C([*:1])[*:2]

Key:
[1] = target: T1, human calcitonin receptor (hCTR) (Homo sapiens, UniProt P30988); assay: hCTR competitive radioligand binding filter assay (125I-hCT); settings: ± SE; membranes of hCTR overexpressing cells
T1 construct: expressed in transfected cells; host or cells: membranes of UM-UC-3 (UMUC3) cells stably expressing human CTa
T1 sequence (P30988 25-474): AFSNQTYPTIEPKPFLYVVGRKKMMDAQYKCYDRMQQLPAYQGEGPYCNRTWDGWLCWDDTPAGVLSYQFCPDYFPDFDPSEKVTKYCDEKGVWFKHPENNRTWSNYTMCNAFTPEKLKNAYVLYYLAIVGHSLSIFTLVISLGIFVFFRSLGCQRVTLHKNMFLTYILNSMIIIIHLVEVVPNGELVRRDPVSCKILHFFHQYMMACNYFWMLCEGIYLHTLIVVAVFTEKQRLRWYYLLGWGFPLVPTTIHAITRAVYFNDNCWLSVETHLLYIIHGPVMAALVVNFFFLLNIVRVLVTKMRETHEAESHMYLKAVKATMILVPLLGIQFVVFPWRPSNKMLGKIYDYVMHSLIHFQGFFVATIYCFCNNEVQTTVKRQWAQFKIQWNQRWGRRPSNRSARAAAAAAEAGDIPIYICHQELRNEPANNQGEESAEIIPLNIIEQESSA
Description: The equilibrium dissociation constants (Kd) for the various receptor/radioligand interactions are determined from saturation binding analysis using the same reagents and buffers as described below for compound testing.
The receptor binding affinity (Ki) of rAMY, hCT, and hAMY agonist peptides on hCTR membranes is determined from a competitive radioligand binding filter assay.

[2] = Pharmacokinetics in male cynomolgus monkeys; format: in vivo; settings: single SC 20 nmol/kg, mean
Description: (§1) The pharmacokinetics of Compound II (SEQ ID NO:2), Compound IV (SEQ ID NO:4), Compound VI (SEQ ID NO:6), and Compound VIII (SEQ ID NO:8) are evaluated following a single subcutaneous administration of 20 nmol/kg to male cynomolgus monkeys. Blood samples are collected at 1, 3, 6, 12, 24, 48, 72, 120, 168, 240, 336, 408, 504 hours post SC dose. The resulting individual plasma concentrations are used to calculate pharmacokinetic parameters. Peptide plasma (K3EDTA) concentrations are determined using a qualified LC/MS method that measured the intact mass of the peptides. Each peptide and an analog as an internal standard are extracted from plasma. A high resolution Thermo Q-Exactive is used for LC/MS detection.

[3] = Pharmacokinetics in male Sprague Dawley rats; format: in vivo; settings: single SC 30 nmol/kg, mean
Description: as §1, with “30” for “20”, “Sprague Dawley rats.” for “cynomolgus monkeys.”, “96” for “120, 168, 240, 336, 408, 504”

hAMY1R = target: T2, hAMY1R (Homo sapiens, UniProt O60894+P30988); assay: hAMY1R cAMP functional activity (HTRF); format: cell-based; settings: ±SE; UMUC3 cells overexpressing hAMY1R; relative EC50
T2 construct: expressed in transfected cells
In short: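 UMUC3 cells expressing hCTR plus transfected human RAMP1 (AMY1R) were treated with peptide in a 1:3 dilution series at 1500 cells/well for 1 h at room temperature. Intracellular cAMP was measured by HTRF after 60 min lysis-detection and converted to pmol/well against a standard curve for each run.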

[4] = Body weight and body composition in diet-induced obese rats, 2-week study; format: in vivo, Long Evan rats; settings: DIO rats, at 2 weeks vs initial
Description: Male Long Evan rats from Envigo RMS (Indianapolis, IN) at 14 weeks of age are put on a high fat diet (40% of kcal from fat, TD.95217; Envigo RMS, Indianapolis, IN) until 35-45 weeks old. Animals are individually housed in a temperature-controlled facility (75.0° F.; 23.9° C.) with a 12-hour reverse light/dark cycle (lights OFF at 10 AM) and free access to food and water. Body weights are recorded and body composition (fat mass) is determined using Quantitative Nuclear Magnetic Resonance Analysis (ECHO MRI, 3-1 Composition Analyzer; Echo Medical Systems, Houston, TX), followed by randomization into experimental groups (n=5). Rats are administered subcutaneous injections of vehicle or peptide (1 mL/kg) every three days (day 1, 4, 7, 10, and 13). Daily body weights are recorded and changes at end of treatment (day 14) are calculated as percentages versus pre-treatment weights (day 1). Body composition is determined on day 14, and changes in fat mass and fat-free mass (body weight−fat mass) are calculated from pre-treatment values as gram changes.

[5] = male, cynomolgus monkey, plasma, n = 3
[6] = 100 nmol/kg SC every three days

T2 sequence (O60894 27-148 partner, one chain of several): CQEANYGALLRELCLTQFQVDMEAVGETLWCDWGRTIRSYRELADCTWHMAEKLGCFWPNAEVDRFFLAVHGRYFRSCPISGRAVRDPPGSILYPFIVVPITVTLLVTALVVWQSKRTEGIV

Ki [1]: 927 ± 120 nM | CL/F [2, 5]: 1.07 mL/h/kg | Tmax [2, 5]: 28 ± 18.3 h | half-life ([2]; male, cynomolgus monkey, plasma, n = 3, read-out: T½ (converted)): 62 ± 4.7 h | AUCINF/D ([2]; n = 3): 942 ± 67 hr * kg * nmol/L/nmol | Cmax/D ([2]; n = 3): 7.2 ± 0.3 kg * nmol/L/nmol | CL/F ([3]; rat, plasma, n = 3): 3.7 mL/h/kg | Tmax ([3]; rat, plasma, n = 3): 16 ± 6.9 h | half-life ([3]; rat, plasma, n = 3, read-out: T l/2 (converted)): 36.4 ± 2.93 h | AUCINF/D ([3]; n = 3): 270 ± 22.4 hr * kg * nmol/L/nmol | Cmax/D ([3]; n = 3): 3.8 ± 0.4 kg * nmol/L/nmol | EC50 (hAMY1R): 0.107 ± 0.02 nM
SMILES: CC[C@H](C)[C@H](NC(=O)[C@@H]1CCCN1C(=O)CNC(=O)[C@H](Cc1ccccc1)NC(=O)[C@H](CC(N)=O)NC(=O)[C@H](Cc1c[nH]cn1)NC(=O)[C@H](CO)NC(=O)[C@H](CO)NC(=O)[C@H](CCCNC(=N)N)NC(=O)[C@@H](NC(=O)[C@H](CC(C)C)NC(=O)[C@H](Cc1ccccc1)NC(=O)[C@H](CCC(=O)O)NC(=O)[C@H](C)NC(=O)[C@](C)(CC(C)C)NC(=O)[C@H](CCCN)NC(=O)CNC(=O)[C@@H](NC(=O)[C@H](C)NC(=O)[C@@H]1CSCSC[C@H](NC(=O)[C@@H](N)CCCCNC(=O)CC[C@H](NC(=O)CC[C@H](NC(=O)CCCCCCCCCCCCCCCCCCC(=O)O)C(=O)O)C(=O)O)C(=O)N[C@@H](CCC(=O)O)C(=O)N[C@@H]([C@@H](C)O)C(=O)N[C@@H](C)C(=O)N[C@@H]([C@@H](C)O)C(=O)N1)[C@@H](C)O)C(C)C)C(=O)N[C@@H](CC(C)C)C(=O)N1CCC[C@H]1C(=O)N1CCC[C@H]1C(=O)N[C@H](C(=O)N[C@@H](CCC(=O)O)C(=O)N[C@H](C(=O)NCC(=O)N[C@@H](CO)C(=O)N[C@@H](CC(N)=O)C(=O)N[C@H](C(=O)N[C@@H](Cc1ccc(O)cc1)C(N)=O)[C@@H](C)O)C(C)C)[C@@H](C)O [Compound VIII] (H-K([γGlu-γGlu-C20 diacid])CETATCATG[Orn][αMeL]AEFLVRSSHNFGPILPPTEVGSNTY-NH2; linker 2-7 via CH2)
Δ Body Weight ([4]; 1 nmol/kg SC every three days): −6.0% | Δ Fat Mass ([4]; 1 nmol/kg SC every three days): -36.6 g | Δ Fat-Free Mass ([4]; 1 nmol/kg SC every three days): -4.7 g | Δ Body Weight ([4]; 10 nmol/kg SC every three days): −9.0% | Δ Fat Mass ([4]; 10 nmol/kg SC every three days): -54.3 g | Δ Fat-Free Mass ([4]; 10 nmol/kg SC every three days): -7.2 g | Δ Body Weight [4, 6]: −11.5% | Δ Fat Mass [4, 6]: -56.4 g | Δ Fat-Free Mass [4, 6]: -26.9 g
